The record followed here is publication PMC10386649, “New Acetamide-Sulfonamide-Containing Scaffolds: Antiurease Activity Screening, Structure-Activity Relationship, Kinetics Mechanism, Molecular Docking, and MD Simulation Studies” (Molecules, 2023).

Where two headings read alike, the source gives them in different places.

One data set addresses jack bean urease (Canavalia ensiformis, UniProt P07374). The data set is described as follows: biochemical. The format is biochemical. To be noted: for % Inhibition (urease): value in parentheses beside IC50; for urease inhibition (in words): qualitative statement.
A further data set concerns the target urease (Canavalia ensiformis, UniProt P07374). Briefly: biochemical. Format: biochemical, jack bean. To be noted: for Mode of Inhibition: Lineweaver–Burk plot, inhibitor 0–20 µM, urea 0.5–4.0 mM; for Vmax (app): intercept, the maximum rate at 20 µM of inhibitor concentration.

Sequence of urease (P07374 whole entry, looked up): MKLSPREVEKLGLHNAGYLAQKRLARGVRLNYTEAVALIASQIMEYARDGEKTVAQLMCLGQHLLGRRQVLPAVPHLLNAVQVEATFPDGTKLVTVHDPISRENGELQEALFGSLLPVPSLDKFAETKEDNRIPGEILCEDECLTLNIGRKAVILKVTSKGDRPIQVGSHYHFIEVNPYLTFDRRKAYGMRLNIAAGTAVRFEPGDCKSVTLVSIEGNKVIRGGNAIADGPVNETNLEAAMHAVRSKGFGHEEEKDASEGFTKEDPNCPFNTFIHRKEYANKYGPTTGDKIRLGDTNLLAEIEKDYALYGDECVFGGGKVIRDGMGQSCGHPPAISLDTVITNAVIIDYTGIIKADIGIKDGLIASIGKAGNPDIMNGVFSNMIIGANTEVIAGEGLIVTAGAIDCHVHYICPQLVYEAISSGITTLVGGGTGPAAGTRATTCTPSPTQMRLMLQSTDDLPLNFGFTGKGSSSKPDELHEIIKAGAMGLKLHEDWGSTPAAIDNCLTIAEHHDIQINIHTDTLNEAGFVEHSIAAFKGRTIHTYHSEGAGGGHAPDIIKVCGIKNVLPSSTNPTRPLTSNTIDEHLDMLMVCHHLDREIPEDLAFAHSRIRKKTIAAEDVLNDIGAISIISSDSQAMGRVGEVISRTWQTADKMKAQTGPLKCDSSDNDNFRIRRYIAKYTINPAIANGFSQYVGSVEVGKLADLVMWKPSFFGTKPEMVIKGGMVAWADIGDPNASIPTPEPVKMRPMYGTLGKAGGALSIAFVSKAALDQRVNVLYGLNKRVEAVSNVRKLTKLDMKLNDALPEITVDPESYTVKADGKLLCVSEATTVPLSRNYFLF
Sequence of jack bean urease (P07374 whole entry, looked up): as above
Method for jack bean urease: Briefly, DMSO was used to dissolve the synthesized conjugates (inhibitors, 250–0.49 µM) and the reference urease inhibitor (thiourea). Each falcon tube contained the respective inhibitor (20 µL), buffer (K2HPO4, 100 µL, 50 mM, pH = 6.8), and jack bean urease (20 µL); each tube was mixed well; and the mixtures were incubated for 30 min at 37 °C. Each tube received 400 µL of urea (20 mM) as a substrate, which was then incubated for 10 min at the same temperature. Afterward, each tube received 400 µL of phenol reagent and 750 µL of alkali reagent containing 0.1% active chlorine and was left at 37 °C for 50 min. Following the use of a spectrophotometer (Labdex, LX210DS, London, UK) to measure absorbance of the mixture in each tube at 595 nm, Equation (1) below was used to compute the percentage of urease inhibition: (1) % Urease inhibition=1−T/C×100 where, T and C are the absorbance of each well containing inhibitor and blank, respectively. The results are presented as mean ± SEM. Using a regression equation where 50% inhibition was seen, the IC50 values of each inhibitor were determined.

Broadly, the IC50 is the point on the concentration scale where inhibition reaches its midpoint. For orientation: Ki means the equilibrium dissociation constant of an inhibitor or competing ligand from its target. Broadly, the melting point is the temperature of the solid-liquid transition. On to `CC(C)Cc1ccc(C(C)C(=O)Nc2ccc(S(N)(=O)=O)cc2)cc1` (stereo not drawn) [Conjugate 4, 2-(4-Isobutylphenyl)-N-(4-sulfamoylphenyl)propanamide], for which the melting point lay within 147 to 150 °C. At jack bean urease, this compound returned a 50% inhibitory concentration (IC50) of 14.26 ± 0.14 µM. Moreover, the “% Inhibition (urease)” value at jack bean urease (jack bean urease) was 84.2%. For the same compound, at urease, the affinity, expressed as Ki, was 8.2 µM; the “Mode of Inhibition” value is listed as “Mixed”; the “Vmax (app)” value was 3.64 µM/min.

In turn, `Cc1noc(NS(=O)(=O)c2ccc(NC(=O)C(C)c3ccc(CC(C)C)cc3)cc2)c1C` (stereo not drawn) [Conjugate 5, N-(4-(N-(3,4-Dimethylisoxazol-5-yl)sulfamoyl)phenyl)-2-(4-isobutylphenyl)propanamide] showed an IC50 on jack bean urease of 23.3 ± 0.41 µM. Also, on jack bean urease (jack bean urease), the “% Inhibition (urease)” value is listed as 84.0%.

Compound `CC(C)Cc1ccc(C(C)C(=O)Nc2ccc(S(=O)(=O)Nc3nccs3)cc2)cc1` (stereo not drawn) [Conjugate 6, 2-(4-Isobutylphenyl)-N-(4-(N-(thiazol-2-yl)sulfamoyl)phenyl)propanamide] registered a melting point of 184 to 185 °C. At jack bean urease, this compound registered an IC50 of 9.95 ± 0.14 µM. For the same compound, the “% Inhibition (urease)” value at jack bean urease (jack bean urease) was 90.6%. On urease, the affinity corresponds to a Ki of 0.17 µM, the “Mode of Inhibition” value is on record as “Competitive” and the “Vmax (app)” value was 1.39 µM/min.

Consider `CC(C)Cc1ccc(C(C)C(=O)Nc2ccc(S(=O)(=O)Nc3ncccn3)cc2)cc1` (stereo not drawn) [Conjugate 7, 2-(4-Isobutylphenyl)-N-(4-(N-(pyrimidin-2-yl)sulfamoyl)phenyl)propanamide], for which the melting point was 171 to 173 °C. On jack bean urease, the IC50 was determined as 50.2 ± 1.24 µM and the “urease inhibition (in words)” value is recorded as “moderate inhibition”. Also, at jack bean urease (jack bean urease), the “% Inhibition (urease)” value is reported as 71.6%.

In turn, `Cc1ccnc(NS(=O)(=O)c2ccc(NC(=O)C(C)c3ccc(CC(C)C)cc3)cc2)n1` (stereo not drawn) [Conjugate 8, 2-(4-Isobutylphenyl)-N-(4-(N-(4-methylpyrimidin-2yl)sulfamoyl)phenyl)propanamide] yielded a melting point of 152 to 154 °C. Further, it took 12.4 ± 0.54 µM to reach half-maximal inhibition against jack bean urease (IC50). Besides, the “% Inhibition (urease)” value at jack bean urease (jack bean urease) turned out to be 87.7%. For the same compound, at urease, affinity was put at a Ki of 3.01 µM, the “Mode of Inhibition” value is given as “Mixed” and the “Vmax (app)” value worked out at 3.0 µM/min.

In the case of `Cc1cc(NS(=O)(=O)c2ccc(NC(=O)C(C)c3ccc(CC(C)C)cc3)cc2)no1` (stereo not drawn) [Conjugate 9, 2-(4-Isobutylphenyl)-N-(4-(N-(5-methylisoxazol-3-yl)sulfamoyl)phenyl)propanamide], at jack bean urease, the IC50 is 39.9 ± 1.17 µM and the “urease inhibition (in words)” value is on record as “moderate inhibition”. Also, the “% Inhibition (urease)” value at jack bean urease (jack bean urease) is listed as 76.7%.

As for `CC(=O)NS(=O)(=O)c1ccc(NC(=O)C(C)c2ccc(CC(C)C)cc2)cc1` (stereo not drawn) [Conjugate 10, N-(4-(N-Acetylsulfamoyl)phenyl)-2-(4-isobutylphenyl)propanamide], the melting point lay in the range of 152 to 155 °C. For the same compound, the IC50 on jack bean urease was 10.3 ± 0.11 µM. For the same compound, the “% Inhibition (urease)” value at jack bean urease (jack bean urease) is recorded as 88.9%. Moreover, at urease, the Ki was 2.62 µM, the “Mode of Inhibition” value is “Mixed” and the “Vmax (app)” value came out at 1.04 µM/min.

`CC(C)Cc1ccc(C(C)C(=O)Nc2ccc(S(=O)(=O)NC(=N)N)cc2)cc1` (stereo not drawn) [Conjugate 11, N-(4-(N-Carbamimidoylsulfamoyl)phenyl)-2-(4-isobutylphenyl)propanamide] had a melting point of 138 to 139 °C. On jack bean urease, the IC50 amounted to 44.5 ± 1.41 µM and the “urease inhibition (in words)” value was “moderate inhibition”. Further, the “% Inhibition (urease)” value at jack bean urease (jack bean urease) is 78.7%.

On to `CC(C(=O)Nc1ccc(S(N)(=O)=O)cc1)c1ccc(-c2ccccc2)c(F)c1` (stereo not drawn) [Conjugate 12, 2-(2-Fluoro-[1,1′-biphenyl]-4-yl)-N-(4-sulfamoylphenyl)propanamide], for which the melting point is 147 to 150 °C. For the same compound, the midpoint of inhibition at jack bean urease, the IC50, lay at 24.92 ± 0.24 µM. Besides, the “% Inhibition (urease)” value at jack bean urease (jack bean urease) came to 82.1%.

Take `Cc1noc(NS(=O)(=O)c2ccc(NC(=O)C(C)c3ccc(-c4ccccc4)c(F)c3)cc2)c1C` (stereo not drawn) [Conjugate 13, N-(4-(N-(3,4-Dimethylisoxazol-5-yl)sulfamoyl)phenyl)-2-(2-fluoro-[1,1′-biphenyl]-4-yl)propanamide]: the melting point lay in the range of 128 to 130 °C. The same compound came in with a half-maximal inhibitory concentration (IC50) on jack bean urease of 35.3 ± 0.21 µM. The “% Inhibition (urease)” value at jack bean urease (jack bean urease) is on record as 84.6%.

Compound `CC(C(=O)Nc1ccc(S(=O)(=O)Nc2nccs2)cc1)c1ccc(-c2ccccc2)c(F)c1` (stereo not drawn) [Conjugate 14, 2-(2-Fluoro-[1,1′-biphenyl]-4-yl)-N-(4-(N-(thiazol-2-yl)sulfamoyl)phenyl)propanamide] showed a melting point of 137 to 140 °C. Besides, at jack bean urease, the 50% inhibitory concentration (IC50) was determined as 63.4 ± 1.15 µM and the “urease inhibition (in words)” value is listed as “moderate inhibition”. In addition, the “% Inhibition (urease)” value on jack bean urease (jack bean urease) is 60.4%.

`CC(C(=O)Nc1ccc(S(=O)(=O)Nc2ncccn2)cc1)c1ccc(-c2ccccc2)c(F)c1` (stereo not drawn) [Conjugate 15, 2-(2-Fluoro-[1,1′-biphenyl]-4-yl)-N-(4-(N-(pyrimidin-2-yl)sulfamoyl)phenyl)propanamide] showed a melting point of 155 to 158 °C. At jack bean urease, this compound returned a concentration for half-maximal inhibition (IC50) of 16.7 ± 0.23 µM. For the same compound, on jack bean urease (jack bean urease), the “% Inhibition (urease)” value was 84.1%. At urease, the inhibition constant Ki was 7.95 µM, the “Mode of Inhibition” value was “Competitive” and the “Vmax (app)” value was found to be 1.89 µM/min.

`Cc1ccnc(NS(=O)(=O)c2ccc(NC(=O)C(C)c3ccc(-c4ccccc4)c(F)c3)cc2)n1` (stereo not drawn) [Conjugate 16, 2-(2-Fluoro-[1,1′-biphenyl]-4-yl)-N-(4-(N-(4-methylpyrimidin-2-yl)sulfamoyl)phenyl)propanamide] came in with a 50% inhibitory concentration (IC50) on jack bean urease of 17.5 ± 0.76 µM. The “% Inhibition (urease)” value on jack bean urease (jack bean urease) turned out to be 86.1%. On urease, the Ki was 1.3 µM, the “Mode of Inhibition” value is on record as “Mixed” and the “Vmax (app)” value is on record as 1.01 µM/min.

Turning to `Cc1cc(NS(=O)(=O)c2ccc(NC(=O)C(C)c3ccc(-c4ccccc4)c(F)c3)cc2)no1` (stereo not drawn) [Conjugate 17, 2-(2-Fluoro-[1,1′-biphenyl]-4-yl)-N-(4-(N-(5-methylisoxazol-3-yl)sulfamoyl)phenyl)propanamide], the IC50 against jack bean urease was 13.39 ± 0.11 µM. Also, the “% Inhibition (urease)” value on jack bean urease (jack bean urease) turned out to be 86.1%. Also, at urease, the Ki worked out at 10.4 µM, the “Mode of Inhibition” value was “Competitive” and the “Vmax (app)” value amounted to 1.56 µM/min.

`CC(=O)NS(=O)(=O)c1ccc(NC(=O)C(C)c2ccc(-c3ccccc3)c(F)c2)cc1` (stereo not drawn) [Conjugate 18, N-(4-(N-Acetylsulfamoyl)phenyl)-2-(2-fluoro-[1,1′-biphenyl]-4-yl)propanamide] came in with a melting point of 187 to 190 °C. Moreover, 14.8 ± 0.16 µM corresponded to half-maximal inhibition against jack bean urease (IC50). Besides, the “% Inhibition (urease)” value at jack bean urease (jack bean urease) is 87.1%. Moreover, at urease, the affinity, expressed as Ki, was 4.11 µM; the “Mode of Inhibition” value is reported as “Mixed”; the “Vmax (app)” value was determined as 1.02 µM/min.

Turning to `CC(C(=O)Nc1ccc(S(=O)(=O)NC(=N)N)cc1)c1ccc(-c2ccccc2)c(F)c1` (stereo not drawn) [Conjugate 19, N-(4-(N-Carbamimidoylsulfamoyl)phenyl)-2-(2-fluoro-[1,1′-biphenyl]-4-yl)propanamide], the melting point fell in the range of 163 to 165 °C. The compound also displayed an IC50 on jack bean urease of 33.83 ± 0.18 µM. The “% Inhibition (urease)” value on jack bean urease (jack bean urease) was 83.8%.

As a reminder, the Km is the substrate concentration at which the rate is half of its maximum. On to `NC(N)=S` [Thiourea, reference compound], for which the IC50 on jack bean urease (jack bean urease, urea substrate, pH 6.8, 37 °C, mean ± SEM, read-out: IC50 (µM), Mean ± SEM) turned out to be 22.6 ± 0.23 µM. The “% Inhibition (urease)” value at jack bean urease (jack bean urease) was 92.3%. Also, on urease, the “Mode of Inhibition” value was “Competitive” and the “Vmax (app)” value came out at 18.61 µM/min. The Ki at urease (from secondary Lineweaver–Burk plots, read-out: Ki (inhibition constant)) stood at 18.2 µM. For the same compound, the Michaelis constant (Km) at urease (slope of the line (Michaelis constant) at 20 µM of inhibitor concentration, read-out: Km (app)) is 2.18 mM.
